In ChEMBL document CHEMBL1201862, “PubChem BioAssay data set” (2004):
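Briefly, cells in 96-well plates were exposed to five compound concentrations for 48 h, and endpoints were estimated by linear interpolation. Abbreviation: GI50, concentration required for 50% inhibition of growth.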 The source made the active and inactive calls. No stated cut-off is given here; in the data, active = GI50 up to about 1.1 µM and inactive = higher.

Tests used:
Experiment in all cases: inhibition of tumour cell growth, NCI panel, 48 h
SK-MEL-28 = test system: SK-MEL-28
RPMI-8226 = test system: RPMI-8226
SN12C = test system: SN12C
RXF 631 = test system: RXF 631
HL-60 = test system: HL-60
KM12 = test system: KM12
ACHN = test system: ACHN
COLO 205 = test system: COLO 205
TK-10 = test system: TK-10
SNB-78 = test system: SNB-78
NCI-H23 = test system: NCI-H23
UACC-257 = test system: UACC-257
KM-20L2 = test system: KM-20L2
HCC 2998 = test system: HCC 2998
SNB-19 = test system: SNB-19
LXFL 529 = test system: LXFL 529
HOP-18 = test system: HOP-18
A549 = test system: A549
IGROV-1 = test system: IGROV-1
OVCAR-5 = test system: OVCAR-5
U-251 = test system: U-251
EKVX = test system: EKVX
SF-295 = test system: SF-295
786-0 = test system: 786-0
XF498 = test system: XF498
MOLT-4 = test system: MOLT-4
DLD-1 = test system: DLD-1
LOX IMVI = test system: LOX IMVI
HT-29 = test system: HT-29
K562 = test system: K562
Malme-3M = test system: Malme-3M
UO-31 = test system: UO-31
RXF 393 = test system: RXF 393
DMS-114 = test system: DMS-114
SW-620 = test system: SW-620
OVCAR-4 = test system: OVCAR-4
UACC-62 = test system: UACC-62
CAKI-1 = test system: CAKI-1
OVCAR-8 = test system: OVCAR-8
SNB-75 = test system: SNB-75
M14 = test system: M14
NCI-H522 = test system: NCI-H522
SF-268 = test system: SF-268
DMS-273 = test system: DMS-273
SK-MEL-5 = test system: SK-MEL-5
SF-539 = test system: SF-539
SK-MEL-2 = test system: SK-MEL-2
HCT-15 = test system: HCT-15
SK-OV-3 = test system: SK-OV-3
CCRF-CEM = test system: CCRF-CEM

**Q.** Which results are given for `COc1ccc2n[se]nc2c1`?
**A.** GI50 (SK-MEL-28): > 100 µM (inactive); GI50 (RPMI-8226): > 100 µM (inactive); GI50 (SN12C): > 100 µM (inactive); GI50 (RXF 631): 61.4 µM (inactive); GI50 (HL-60): > 100 µM (inactive); GI50 (KM12): 56.4 µM (inactive); GI50 (ACHN): > 100 µM (inactive); GI50 (COLO 205): > 100 µM (inactive); GI50 (TK-10): 70.6 µM (inactive); GI50 (SNB-78): > 100 µM (inactive); GI50 (NCI-H23): > 100 µM (inactive); GI50 (UACC-257): 54.6 µM (inactive); GI50 (KM-20L2): > 100 µM (inactive); GI50 (HCC 2998): 38.6 µM (inactive); GI50 (SNB-19): 69.2 µM (inactive); GI50 (LXFL 529): > 100 µM (inactive); GI50 (HOP-18): < 0.01 µM (active); GI50 (A549): 45.5 µM (inactive); GI50 (IGROV-1): 38.9 µM (inactive); GI50 (OVCAR-5): > 100 µM (inactive); GI50 (U-251): > 100 µM (inactive); GI50 (EKVX): > 100 µM (inactive); GI50 (SF-295): 32 µM (inactive); GI50 (786-0): 48.3 µM (inactive); GI50 (XF498): > 100 µM (inactive); GI50 (MOLT-4): > 100 µM (inactive); GI50 (DLD-1): > 100 µM (inactive); GI50 (LOX IMVI): > 100 µM (inactive); GI50 (HT-29): > 100 µM (inactive); GI50 (K562): > 100 µM (inactive); GI50 (Malme-3M): 65.8 µM (inactive); GI50 (UO-31): 59.3 µM (inactive); GI50 (RXF 393): 48.4 µM (inactive); GI50 (DMS-114): > 100 µM (inactive); GI50 (SW-620): > 100 µM (inactive); GI50 (OVCAR-4): > 100 µM (inactive); GI50 (UACC-62): > 100 µM (inactive); GI50 (CAKI-1): > 100 µM (inactive); GI50 (OVCAR-8): > 100 µM (inactive); GI50 (SNB-75): 64.1 µM (inactive); GI50 (M14): > 100 µM (inactive); GI50 (NCI-H522): > 100 µM (inactive); GI50 (SF-268): > 100 µM (inactive); GI50 (DMS-273): > 100 µM (inactive); GI50 (SK-MEL-5): 50.1 µM (inactive); GI50 (SF-539): 23.1 µM (inactive); GI50 (SK-MEL-2): 41.5 µM (inactive); GI50 (HCT-15): > 100 µM; GI50 (SK-OV-3): 46.3 µM (inactive); GI50 (CCRF-CEM): > 100 µM (inactive)
